Assay results published in ChEMBL document CHEMBL5226318, “Emerging Therapeutic Potential of SIRT6 Modulators” (J Med Chem, 2021).

Test: Oral bioavailability in C57BL/6J mouse
Format: ADME, organism-based
Conditions: in vivo

Row | SMILES | bioavailability
1 | COC(=O)c1cc(NS(=O)(=O)c2cc(Cl)cc(Cl)c2)ccc1S(=O)(=O)Nc1cc(Br)c(F)cc1C | 71.3%
2 | Cc1cc(F)c(Br)cc1NS(=O)(=O)c1ccc(NS(=O)(=O)c2cc(Cl)cc(Cl)c2)cc1CN1CCOC[C@H]1C | 93%
